Results as given in patent publication US20230292776A1, “GAS PHASE TREATMENT OF PRODUCE” (priority 2022, published 2023).

How the values were obtained:
mandarins = assay: Visible appearance of vapor-treated mandarins; type: in vivo, mandarin
Experimental: Example 1. The antifungal activity of diallyl disulfide (DADS) vapor against Penicillium digitatum (Pd) was tested in mandarins. All samples were wounded by puncturing with a screw and infected by dispensing 1000 Pd spores suspended in 10 μL of water into each wound. The test groups consisted of mandarins that were: untreated; dipped in a solution of 1 g/L of imazalil; and exposed for 72 hours to the vapor of 3 mL of DADS in a Petri dish.
Example 2. The antifungal activity of allyl isothiocyanate (AITC) and DADS vapor was tested against Pd and Penicillium italicum (Pi) in mandarins. All samples were wounded by puncturing with a screw. Mandarins were infected by dispensing either 1000 Pd spores or 1000 Pi spores suspended in 10 μL into the wound. The test groups consisted of mandarins that were: uninfected and untreated; uninfected and treated by dipping in a solution of 1 g/L of imazalil; infected with Pd and untreated; infected with Pd and exposed to AITC; infected with Pd and exposed to DADS; infected with Pi and untreated; infected with Pi and exposed to AITC; and infected with Pi and exposed to DADS. Exposure to AITC or DADS consisted of exposing the mandarins for 72 hours to the vapor of 3 mL of the respective compound dispensed in a Petri dish. […] DADS vapor reduced the incidence of Pd mold by 85% and Pi mold by 30% compared to the respective untreated/infected test groups. […] Both AITC and DADS were effective at preventing fungal growth. The inhibition from AITC was approximately 100%, with some changes in visible appearance.
Example 3. The antifungal activity of a reduced dose of AITC vapor against Pd in mandarins was tested. All samples were wounded by puncturing with a screw. Mandarins were infected by dispensing 1000 Pd spores suspended in 10 μL of water into each wound. The test groups consisted of mandarins that were: uninfected and untreated; infected with Pd and untreated; and exposed to the vapor of 500 μL of AITC in a Petri dish for 72 hours.
Example 4. The antifungal activity of a range of AITC vapor concentrations was tested against Pd in mandarins. All mandarins were wounded by puncturing with a screw and infected by dispensing 1000 Pd spores suspended in 10 μL of water in each wound. The fruit was then placed in an airtight container, a range of AITC volumes were disposed onto a Whatman filter paper disc, the disc was suspended in front of a battery-powered fan, and the container closed for 18 hours. The mandarins were then left at ambient temperature and high humidity for 6 days. The test groups were mandarins that were infected and untreated, and infected and treated with 62.5 μL 125 μL 250 μL and 500 μL on the filter paper disc. […]
Example 5. […] The test groups were then left at ambient temperature, high humidity, and assessed for Pd mold after 6 days. […]

Botrytis cinerea (Bc) = assay: Antifungal activity of vapor against Botrytis cinerea (Bc) in grapes; type: in vivo; settings: Example 12; vapor of 3 mL in a Petri dish for 72 hours
Experimental: (§1) Example 12. The antifungal activity of AITC and DADS vapor against Botrytis cinerea (Bc) in grapes was tested. All samples were wounded by making a 3 mm deep puncture in the skin. Samples were infected by dispensing 1000 Bc spores suspended in 10 μL of water in the wound. The test groups consisted of grapes that were: uninfected and untreated; infected and untreated; exposed to the vapor of 3 mL of AITC in a Petri dish for 72 hours; and exposed to the vapor of 3 mL of DADS in a Petri dish for 72 hours. FIG. 17 quantifies the infection results. […] Both AITC and DADS vapor were effective at controlling Bc mold. Treatment with AITC can potentially lead to changes in color or flavor of the grapes.

grapes = assay: Visible appearance of vapor-treated grapes; type: in vivo, grape
Experimental: as §1

| SMILES | fruit with spotting and darkening of the peel (mandarins; Example 5, 125 μL, 2 hour treatment) [%] | visible appearance of mandarins (mandarins; in vivo) | Bc mold in grapes (Botrytis cinerea (Bc)) | visible appearance of grapes (grapes; in vivo) | visible appearance of mandarins (mandarins; Example 1, 72 hours vapor of 3 mL) | visible appearance of mandarins (mandarins; Example 2, 72 hours vapor of 3 mL) | visible appearance of grapes (grapes; Example 12, vapor of 3 mL for 72 hours) |
| --- | --- | --- | --- | --- | --- | --- | --- |
| C=CCN=C=S [AITC, allyl isothiocyanate] | 62.5 | visibly darker than untreated fruit | substantially eliminated Bc mold | darkening of the fruit | – | – | – |
| C=CCSSCC=C [DADS, diallyl disulfide] | – | – | substantially eliminated Bc mold | – | no visible degradation or discoloration | No difference in appearance | appeared unchanged |
